In US8518942B2, “Caspase inhibitors and uses thereof” (Buck Institute for Research on Aging, priority 2008, dated 2013):

Target: T1, caspase-2 (Homo sapiens, UniProt P42575)
T1 sequence (P42575 170-325 limits assumed): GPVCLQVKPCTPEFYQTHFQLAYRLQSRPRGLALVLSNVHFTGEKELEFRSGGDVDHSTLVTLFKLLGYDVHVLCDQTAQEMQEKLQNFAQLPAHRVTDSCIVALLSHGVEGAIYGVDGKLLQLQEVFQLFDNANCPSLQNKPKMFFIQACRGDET
T1 sequence (P42575 348-452 limits assumed): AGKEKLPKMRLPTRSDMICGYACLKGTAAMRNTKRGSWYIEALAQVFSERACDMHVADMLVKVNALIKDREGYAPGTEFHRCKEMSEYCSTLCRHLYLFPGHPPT
Assay: Blots of full-length huntingtin (23Q & 148Q) treated with caspase-2 plus inhibitor
Format: biochemical
Details: for Caspase-2 cleavage of Htt: conclusion; for Inhibition of caspase-2 cleavage of full-length huntingtin (blot): 23Q & 148Q, at the higher concentration of 10 μM

Row | SMILES | Caspase-2 cleavage of Htt | Inhibition of caspase-2 cleavage of full-length huntingtin (blot)
1 | C[C@@](NC(=O)CCCC(=O)O)(c1cn([C@@H](CC(=O)O)C(=O)COc2c(F)c(F)cc(F)c2F)nn1)C1CCCCC1 [MJL-002i] | do not inhibit | –
2 | C[C@@](NS(=O)(=O)Cc1ccccc1)(c1cn([C@@H](CC(=O)O)C(=O)COc2c(F)c(F)cc(F)c2F)nn1)C1CCCCC1 [MJL-001i] | do not inhibit | slight inhibition
3 | C[C@@](NC(=O)Cc1ccccc1)(c1cn([C@@H](CC(=O)O)C(=O)COc2c(F)c(F)cc(F)c2F)nn1)C1CCCCC1 [MJL-003i] | do not inhibit | slight inhibition
